Reference: US9120762B2, “Salts of bicyclo-substituted pyrazolon azo derivatives, preparation method and use thereof” (Jiangsu Hengrui Medicine Co., Ltd., priority 2009, dated 2015)
Like-named read-outs stand apart in the source and are kept apart here.

Key:
[1] = Pharmacokinetics assay in rats; assay type: in vivo, SD rats; conditions: SD rats, intragastric, 50 mg/Kg (as free acid); for Tmax / Vd/F / AUC / CL/F / half-life / MRT / Cmax: both sexes, rat, po; for Tmax: read-out: Time to peak Tmax; for Vd/F: read-out: Apparent Distribution Volume Vz/F; for AUC: read-out: Area Under Curve AUC; for CL/F: read-out: Clearance CL/F (converted); for half-life: read-out: Half-Life t½ (converted); for MRT: read-out: Mean Residence Time MRT; for Cmax: read-out: Plasma Conc. Cmax
Description: The compounds of the present disclosure were administrated intragastrically to rats to determine the drug concentration in plasma at different time points by HPLC-UV. The pharmacokinetic behavior of the compounds of the present disclosure was studied and evaluated in rats. […] Healthy adult SD rats, male and female in half, were purchased from SINO-BRITSH SIPPR/BK LAB.ANIMAL LTD., Colo., License number: SCXK (Shanghai) 2003-0002 The test compound was diluted with 1% sodium carboxymethyl cellulose to 5 mg/mL (calculated as the free acid form) of suspension before use. Healthy adult SD rats, male and female in half, were divided into 23 groups. […] The plasma samples were stored at −20° C. until analysis. The rats were fed 2 hours after administration. […] Then the mixture was mixed for 3 minute using a vortexer and centrifuged for 10 minutes at 13,500 rpm. 40 μL of the supernatant was analyzed by HPLC-UV. The compartmental model of pharmacokinetics was fitted for the test compounds and the major pharmacokinetic parameters were calculated in which Cmax and tmax were the actually measured values.

[2] = Solubility assay in water, 0.1% hydrochloric acid and methanol; assay type: physicochemical
Description: The solubility was characterized by:
The term “very soluble” refers to that 1 g (mL) of solute can be dissolved in less than 1 mL of solvent;
The term “freely soluble” refers to that 1 g (mL) of solute can be dissolved in from 1 mL to 10 mL, not including 10 mL of solvent;
The term “soluble” refers to that 1 g (mL) of solute can be dissolved in from 10 mL to 30 mL, not including 30 mL of solvent;
The term “sparingly soluble” refers to that 1g (mL) of solute can be dissolved in from 30 mL to 100 mL, not including 100 mL of solvent;
The term “slightly soluble” refers to that 1g (mL) of solute can be dissolved in from 100 mL to 1000 mL, not including 1000 mL of solvent;
The term “very slightly soluble” refers to that 1g (mL) of solute can be dissolved in from 1000 mL to 10000 mL, not including 10000 mL of solvent;
The term “practically insoluble or insoluble” refers to that 1g (mL) of solute cannot be dissolved completely in 10000 mL of solvent.

[3] = biological target: T1, human TPOR (Homo sapiens, UniProt P40238); assay: Proliferation effect on BAF3-TPOR cell (CCK-8); assay type: cell-based; conditions: rate relative to rhTPO positive control
T1 construct: host or cells: BaF3 (murine pro-B cells), stably transfected, G418-selected
T1 sequence (P40238 26-635): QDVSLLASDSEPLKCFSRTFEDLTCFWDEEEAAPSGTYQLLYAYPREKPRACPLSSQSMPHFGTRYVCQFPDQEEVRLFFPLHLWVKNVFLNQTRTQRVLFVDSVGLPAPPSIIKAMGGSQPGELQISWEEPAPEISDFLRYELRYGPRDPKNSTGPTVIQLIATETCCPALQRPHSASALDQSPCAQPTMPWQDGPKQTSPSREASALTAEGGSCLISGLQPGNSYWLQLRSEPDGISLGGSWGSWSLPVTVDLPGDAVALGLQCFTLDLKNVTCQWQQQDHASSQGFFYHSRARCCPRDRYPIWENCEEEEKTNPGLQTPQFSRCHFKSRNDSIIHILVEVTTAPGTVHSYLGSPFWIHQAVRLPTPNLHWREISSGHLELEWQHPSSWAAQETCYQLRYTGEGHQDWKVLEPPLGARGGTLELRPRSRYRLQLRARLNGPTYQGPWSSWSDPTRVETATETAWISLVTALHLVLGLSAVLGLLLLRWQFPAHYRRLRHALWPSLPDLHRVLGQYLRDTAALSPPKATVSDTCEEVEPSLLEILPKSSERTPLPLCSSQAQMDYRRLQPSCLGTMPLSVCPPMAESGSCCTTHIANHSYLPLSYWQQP
Description: (1) Plasmid constructs: based on the TPO receptor (TPOR) sequence information from Entrez (Gene ID: 4325, Refseq: NM_005373), dual-site mutation was performed on EX-B0010-M02 plasmid by using QuikChange® Multi Site Directed Mutagenesis Kit (Stratagene). The sequence of primers containing multi-sites mutation was designed as follows: […]
The E. coli DH5α competent cells were transformed with mutated plasmid, and positive colonies were picked up through ampicillin selection. The mutation result was confirmed by sequence analysis.
(2) BAF3-TPOR stable transfected cell line: the following method was used to construct the BaF3 cell which stably over-expressed functional human TPOR. The successfully mutated EX-B0010-M02 plasmid ([…]) which expressed human TPOR and screening gene neomycin was transfected into wild-type BaF3 cells (1×10^7) by electroporation at 250V for 18 ms using an electric pulse generator (Electro Square Porator ECM830, BTX Division of Genetronic, Inc. US). The stable transfected cells BAF3-TPOR were selected with G418 (Gibco, US), then incubated in RPMI1640 medium plus 10% FBS (Gibco, US), […] G418, 5 ng/mL, rmIL-3 (Chemicon, US).
(1) Washing cells by centrifugation: a suitable amount of cell suspension was centrifuged at 1000 rpm for 5 minutes, and the supernatant was discarded. 10 mL of cell culture media without IL-3 was added. Then the resulting cell suspension was centrifuged at 1000 rpm for 5 minutes, and the supernatant was discarded.
(2) 1 mL of cell culture media without IL-3 was added to beat upon them to equality, and the number of a suitable amount of cell suspension was counted after dilution.
(3) According to the result of the cell counting, a cell suspension in a concentration of 100,000 cell/mL was prepared.
(4) 100 μL of cell suspension was transferred to each well of 96-well culture plate, and there were 3 parallel wells, that is, there were a blank control group (B), a negative control group (N), a positive control group of TPO (P) and a test compound group (S).
(5) The test compound was dissolved in DMSO to prepare a 10 mM stock solution, and then the solution was diluted with RPMI 1640 medium into a series of test samples at different concentration: 30 μM, 10 μM, 3 μM, 1 μM, 0.3 μM, 0.1 μM, 0.03 μM, 0.01 μM, 0.003 μM, 0.001 μM.
(6) 10 μL of test compound solution was transferred to each well respectively; 1 μL of rhTPO (10 ng/mL) was added to positive control well.
(7) The plates were incubated in an incubator at 5% CO2 and 37° C. for 24 hours.
(8) After incubation, 10 μL of CCK-8 solution was added to each well and the plates were incubated in the incubator for another 24 hours.
(9) OD value was detected at 450 nm by VICTORS (Perkin Elmer 1420-120) plate reader.
(1) The proliferation rate was calculated as follows: Rate=[(S−B)/(P−B)]*100%
S: OD value of wells which contain test compound.
B: OD value of blank control wells
P: OD value of positive control wells
(2) The EC50 value was calculated by Origin 7.0 software.

[4] = 0.1% hydrochloric acid, simulated gastric fluid, 0.1% hydrochloric acid, read-out: solubility
[5] = methanol, organic solvent or mixture, methanol, read-out: solubility

| Structure (SMILES) | Area Under Curve AUC ([1]; 50 mg/kg) | Clearance CL/F ([1]; 50 mg/kg) | Half-Life t½ ([1]; 50 mg/kg) | Mean Residence Time MRT ([1]; 50 mg/kg) | Plasma Conc. Cmax ([1]; 50 mg/kg) | Tmax ([1]; SD, plasma, 50 mg/kg) | solubility [2, 4] | solubility ([2]; methanol) | solubility ([2]; water, read-out: solubility) | EC50 [3] | Time to peak Tmax ([1]; 50 mg/kg) | solubility ([2]; water) | Vd/F ([1]; SD, plasma, 50 mg/kg) | AUC ([1]; SD, plasma, 50 mg/kg) | CL/F ([1]; SD, plasma, 50 mg/kg) | half-life ([1]; SD, plasma, 50 mg/kg) | MRT ([1]; SD, plasma, 50 mg/kg) | Cmax ([1]; SD, plasma, 50 mg/kg) | solubility [2, 5] | CL/F ([1]; in vivo) |
| --- | --- | --- | --- | --- | --- | --- | --- | --- | --- | --- | --- | --- | --- | --- | --- | --- | --- | --- | --- | --- |
| CC1=NN(c2ccc3c(c2)C(C)(C)CC3)C(=O)/C1=N\Nc1cccc(-c2ccc(C(=O)O)o2)c1O [Example 4h, (Z)-5-(3-{N′-[1-(3,3-dimethyl-indan-5-yl)-3-methyl-5-oxo-1,5-dihydro-pyrazol-4-ylidene]-hydrazino}-2-hydroxy-phenyl)-furan-2-carboxylic acid] | 9.5 ± 8.3 µg·h/mL | 54.3 ± 32.2 mL/min/kg | 19.8 ± 16.4 h | 31.7 ± 24.6 h | 1290 ± 380 ng/mL | 2.5 ± 1 h | < 1 µg/mL | <1 µg/mL | < 1 µg/mL | 32 nM | – | – | – | – | – | – | – | – | – | – |
| CC1=NN(c2ccc3c(c2)CCC3)C(=O)/C1=N\Nc1cccc(-c2cccc(C(=O)O)c2)c1O [Example 1j, (Z)-2′-hydroxy-3′-[N′-(1-indan-5-yl-3-methyl-5-carbonyl-1,5-dihydro-pyrazol-4-ylidene)-hydrazino]-biphenyl-3-carboxylic acid] | 131 ± 47 µg·h/mL | 0.817 ± 0.583 mL/min/kg | 4.21 ± 1.86 h | 3.89 ± 1.78 h | 29050 ± 11440 ng/mL | – | < 1 µg/mL | <1 µg/mL | – | 200 nM | 4.00 ± 1.41 h | <1 µg/mL | – | – | – | – | – | – | – | – |
| CC1=NN(c2ccc3c(c2)C(C)(C)CC3)C(=O)/C1=N\Nc1cccc(-c2ccc(C(=O)O)o2)c1O.NCCO.NCCO [Example 4, (Z)-5-(3-{N′-[1-(3,3-dimethyl-indan-5-yl)-3-methyl-5-oxo-1,5-dihydro-pyrazol-4-ylidene]-hydrazino}-2-hydroxy-phenyl)-furan-2-carboxylic acid bis-(ethanolamine)] | – | – | – | – | – | 2.25 ± 2.47 h | 24 µg/mL | – | 2900 µg/mL | 25 nM | – | – | 58.1 ± 47.7 L/kg | 19 ± 12.6 µg·h/mL | 40.3 mL/min/kg | 27 ± 31.5 h | 38.3 ± 36.5 h | 2320 ± 1800 ng/mL | 19000 µg/mL | – |
| CC1=NN(c2ccc3c(c2)CCC3)C(=O)/C1=N\Nc1cccc(-c2csc(C(=O)O)c2)c1O [Example 19d, (Z)-4-{2-hydroxy-3-[N′-(1-indan-5-yl-3-methyl-5-oxo-1,5-dihydro-pyrazol-4-ylidene)-hydrazino]-phenyl}-thiophene-2-carboxylic acid] | 36.1 ± 36.4 µg·h/mL | 24 ± 13.8 mL/min/kg | 1.84 ± 1.05 h | 3.01 ± 1.99 h | 7910 ± 6840 ng/mL | – | < 1 µg/mL | <1 µg/mL | – | 43 nM | 2.50 ± 0.58 h | <1 µg/mL | – | – | – | – | – | – | – | – |
| CC1=NN(c2ccc3c(c2)CCC3)C(=O)/C1=N\Nc1cccc(-c2cccc(C(=O)O)c2)c1O.NCCO.NCCO [Example 1, (Z)-2′-hydroxy-3′-[N′-(1-indan-5-yl-3-methyl-5-oxo-1,5-dihydro-pyrazol-4-ylidene)-hydrazino]-biphenyl-3-carboxylic acid bis-(ethanolamine)] | – | – | – | – | – | 3.25 ± 1.5 h | < 1 µg/mL | – | 3 µg/mL | 150 nM | – | – | 0.45 ± 0.32 L/kg | 501 ± 178 µg·h/mL | 1.63 mL/min/kg | 5.39 ± 0.94 h | 4.96 ± 1.16 h | 90100 ± 35300 ng/mL | 1470 µg/mL | – |
| CC1=NN(c2ccc3c(c2)CCCC3)C(=O)/C1=N\Nc1cccc(-c2ccc(C(=O)[O-])o2)c1[O-].[Na+].[Na+] [Example 14, (Z)-5-(2-hydroxy-3-{N′-[3-methyl-5-oxo-1-(5,6,7,8-tetrahydro-naphthalen-2-yl)-1,5-dihydro-pyrazol-4-ylidene]-hydrazino}-phenyl)-furan-2-carboxylic acid disodium salt] | – | – | – | – | – | 5.25 ± 1.5 h | < 1 µg/mL | – | 1880 µg/mL | 19 nM | – | – | 9.54 ± 8.03 L/kg | 132 ± 189 µg·h/mL | – | 4.72 ± 2.82 h | 7.2 ± 2.13 h | 17800 ± 22600 ng/mL | 3720 µg/mL | 40 mL/min/kg |
